Assay results reported in PubChem BioAssay (NCI).
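Growth conditions: 96-well plates. Treatment: test compound, 48 hours, 5 concentrations. Analysis: linear interpolation between bracketing concentrations; unreached endpoints set to highest concentration. The concentration for 50% growth inhibition is given as GI50. TGI: concentration producing complete growth inhibition.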

Key:
Assay in all cases: NCI anticancer screen, dose series, 48 h
COLO 205 colon = system: COLO 205 colon
SNB-75 CNS = system: SNB-75 CNS
M14 melanoma = system: M14 melanoma
EKVX NSCLC = system: EKVX NSCLC
IGROV1 ovarian = system: IGROV1 ovarian
RXF 393 renal = system: RXF 393 renal
UO-31 renal = system: UO-31 renal
MDA-MB-231 breast = system: MDA-MB-231 breast
TK-10 renal = system: TK-10 renal
HOP-92 NSCLC = system: HOP-92 NSCLC
SF-295 CNS = system: SF-295 CNS
UACC-257 melanoma = system: UACC-257 melanoma
OVCAR-5 ovarian = system: OVCAR-5 ovarian
OVCAR-4 ovarian = system: OVCAR-4 ovarian
A498 renal = system: A498 renal
BT-549 breast = system: BT-549 breast
HL-60(TB) leukemia = system: HL-60(TB) leukemia
SK-MEL-2 melanoma = system: SK-MEL-2 melanoma
SF-268 CNS = system: SF-268 CNS
NCI-H522 lung = system: NCI-H522 lung
NCI/ADR-RES ovarian = system: NCI/ADR-RES ovarian
NCI-H23 lung = system: NCI-H23 lung
MDA-MB-435 = system: MDA-MB-435
HCT-116 colon = system: HCT-116 colon
SR leukemia = system: SR leukemia
SF-539 CNS = system: SF-539 CNS
U251 CNS = system: U251 CNS
CCRF-CEM leukemia = system: CCRF-CEM leukemia
CAKI-1 renal = system: CAKI-1 renal
OVCAR-8 ovarian = system: OVCAR-8 ovarian
SW-620 colon = system: SW-620 colon
ACHN renal = system: ACHN renal
OVCAR-3 ovarian = system: OVCAR-3 ovarian
NCI-H460 lung = system: NCI-H460 lung
KM12 colon = system: KM12 colon
HT29 colon = system: HT29 colon
SK-MEL-5 melanoma = system: SK-MEL-5 melanoma
MALME-3M melanoma = system: MALME-3M melanoma
DU-145 prostate = system: DU-145 prostate
T-47D breast = system: T-47D breast
K-562 leukemia = system: K-562 leukemia
HCC-2998 colon = system: HCC-2998 colon
HS 578T breast = system: HS 578T breast
HCT-15 colon = system: HCT-15 colon
UACC-62 melanoma = system: UACC-62 melanoma
PC-3 prostate = system: PC-3 prostate
SN12C renal = system: SN12C renal
HOP-62 NSCLC = system: HOP-62 NSCLC
MOLT-4 leukemia = system: MOLT-4 leukemia
SNB-19 CNS = system: SNB-19 CNS
SK-MEL-28 melanoma = system: SK-MEL-28 melanoma
786-0 renal = system: 786-0 renal
A549 NSCLC = system: A549 NSCLC
NCI-H226 lung = system: NCI-H226 lung
SK-OV-3 ovarian = system: SK-OV-3 ovarian

## CC(=O)Nc1cccc(Nc2nc(N[C@@H](C)c3ccccc3)c3ccccc3n2)c1
COLO 205 colon
  GI50: 0.625 µM
  TGI: 4.34 µM
SNB-75 CNS
  GI50: 0.194 µM
  TGI: 0.82 µM
M14 melanoma
  GI50: 0.401 µM
  TGI: 1.61 µM
EKVX NSCLC
  GI50: 0.656 µM
  TGI: 16.5 µM
IGROV1 ovarian
  GI50: 0.507 µM
  TGI: 2.95 µM
RXF 393 renal
  GI50: 0.154 µM
  TGI: 0.581 µM
UO-31 renal
  GI50: 0.697 µM
  TGI: 2.33 µM
MDA-MB-231 breast
  GI50: 0.942 µM
  TGI: 3.6 µM
TK-10 renal
  GI50: 6.69 µM
  TGI: 21.2 µM
HOP-92 NSCLC
  GI50: 0.373 µM
  TGI: 4.94 µM
SF-295 CNS
  GI50: 0.377 µM
  TGI: 1.56 µM
UACC-257 melanoma
  GI50: 1.18 µM
  TGI: 3.43 µM
OVCAR-5 ovarian
  GI50: 1.39 µM
  TGI: 11.6 µM
OVCAR-4 ovarian
  GI50: 0.784 µM
  TGI: 11.8 µM
A498 renal
  GI50: 0.278 µM
  TGI: 1.5 µM
BT-549 breast
  GI50: 3.62 µM
  TGI: 18.7 µM
HL-60(TB) leukemia
  GI50: 0.303 µM
  TGI: 0.868 µM
SK-MEL-2 melanoma
  GI50: 0.832 µM
  TGI: 6.01 µM
SF-268 CNS
  GI50: 0.571 µM
  TGI: 3.28 µM
NCI-H522 lung
  GI50: 0.322 µM
  TGI: 2.18 µM
NCI/ADR-RES ovarian
  GI50: 0.464 µM
  TGI: 4.75 µM
NCI-H23 lung
  GI50: 0.387 µM
  TGI: 2.69 µM
MDA-MB-435
  GI50: 0.169 µM
  TGI: 0.419 µM
HCT-116 colon
  GI50: 0.459 µM
  TGI: 1.94 µM
SR leukemia
  GI50: 0.253 µM
  TGI: 2.58 µM
SF-539 CNS
  GI50: 0.318 µM
  TGI: 1.14 µM
U251 CNS
  GI50: 0.525 µM
  TGI: 2.9 µM
CCRF-CEM leukemia
  GI50: 0.372 µM
CAKI-1 renal
  GI50: 0.374 µM
  TGI: 2.77 µM
OVCAR-8 ovarian
  TGI: 9.3 µM
SW-620 colon
  GI50: 0.425 µM
  TGI: 5.28 µM
ACHN renal
  GI50: 0.672 µM
  TGI: 6.9 µM
OVCAR-3 ovarian
  GI50: 0.359 µM
  TGI: 1.54 µM
NCI-H460 lung
  GI50: 0.356 µM
  TGI: 2.1 µM
KM12 colon
  GI50: 0.439 µM
  TGI: 6.45 µM
HT29 colon
  GI50: 0.362 µM
  TGI: 5.05 µM
SK-MEL-5 melanoma
  GI50: 0.292 µM
  TGI: 1.07 µM
MALME-3M melanoma
  GI50: 0.47 µM
  TGI: 1.9 µM
DU-145 prostate
  GI50: 0.651 µM
  TGI: 6.4 µM
T-47D breast
  GI50: 0.512 µM
  TGI: 6.47 µM
K-562 leukemia
  GI50: 0.27 µM
  TGI: > 100 µM
HCC-2998 colon
  GI50: 0.982 µM
  TGI: 2.53 µM
HS 578T breast
  GI50: 0.361 µM
  TGI: 2.51 µM
HCT-15 colon
  GI50: 0.355 µM
  TGI: 1.91 µM
UACC-62 melanoma
  GI50: 0.38 µM
  TGI: 1.93 µM
PC-3 prostate
  GI50: 0.408 µM
  TGI: 11.4 µM
SN12C renal
  GI50: 0.608 µM
  TGI: 2.86 µM
HOP-62 NSCLC
  GI50: 0.808 µM
  TGI: 7.08 µM
MOLT-4 leukemia
  GI50: 0.491 µM
  TGI: 6.82 µM
SNB-19 CNS
  GI50: 0.5 µM
  TGI: 12.6 µM
SK-MEL-28 melanoma
  GI50: 1 µM
  TGI: 2.43 µM
786-0 renal
  GI50: 0.63 µM
  TGI: 4.28 µM
A549 NSCLC
  GI50: 0.601 µM
  TGI: 5.97 µM
NCI-H226 lung
  GI50: 0.738 µM
  TGI: 21.6 µM
SK-OV-3 ovarian
  GI50: 0.679 µM
  TGI: 15.2 µM
